Data as given in ChEMBL document CHEMBL3638965, “Chemical compounds 542” (2015).

Molecular target: DNA gyrase (Escherichia coli, UniProt P0AES4+P0AES6)
Experiment: Fluorescence Polarisation Assay: In a black, 384-well polystyrene assay plate, 30 microliters/well of 5 nM Escherichia coli DNA gyrase A/B tetramer and 130 micrograms/ml of topologically relaxed plasmid containing the triplex-forming sequence […] in an assay buffer consisting of 35 mM Tris-HCl (pH 7.5), 24 mM KCl, 4 mM MgCl2, 2 mM dithiothreitol, 1.8 mM spermidine, 5% (v/v) glycerol, 200 nM bovine serum albumin, 0.8% dimethylsulfoxide, and 0.3 mM ATP may be incubated at ambient temperature for (typically 30 minutes) in the absence or presence of 5-10 different concentrations of test compound. The supercoiling reactions may be quenched by the addition of 10 microliters/well of 40 nM oligodeoxynucleotide probe in 3x triplex-forming buffer consisting of 150 mM NaCl, and 150 mM sodium acetate at pH 3.5. The oligodeoxynucleotide probe may be 5x-BODIPY-FL-labeled […]. After 60 minutes, the fluorescence anisotropy of the BODIPY-FL may be measured in a Tecan Ultra plate reader, using 485 nM.
Format: protein-complex assay

Q: For `C[C@@H]1CN2c3c(cc4c(C(N)=O)noc4c3F)CC3(C(=O)NC(=O)NC3=O)[C@H]2[C@H](C)O1` (relative stereo), which IC50 is on record?
A: 1.7 µM

Q: For `Cc1noc2c(Cl)c3c(nc12)CC1(C(=O)NC(=O)NC1=O)[C@H]1[C@H](C)O[C@H](C)CN31` (relative stereo), which IC50 is on record?
A: 1.8 µM

Q: Which IC50 does the source give for `C[C@@H]1CN2c3c(cc4c(Cl)noc4c3F)CC3(C(=O)NC(=O)NC3=O)[C@H]2[C@H](C)O1` here?
A: 0.2 µM
